Measured values published in ChEMBL document CHEMBL1201862, “PubChem BioAssay data set” (2004).
Activity calls are given as the source filed them.

Experiments:
[1] = tested on: Streptococcus sp. 'group A'; assay: growth inhibition of control SK(-) GAS strain, dose response, counter-screen for streptokinase expression inhibitor project, luminescence, kanamycin, BacTiterGlo, confirmation (AID 1900); assay type: functional, organism-based
Streptokinase A = target: T1, Streptokinase A (Streptococcus pyogenes serotype M1, UniProt P10520); assay: S. pyogenes streptokinase expression inhibitors, potency, dose response, plasminogen activation absorbance, OD405 (AID 1914); assay type: functional, Streptococcus pyogenes M1 GAS;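 note: secreted streptokinase activity via plasminogen activation per viability signal from cell pellet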
T1 sequence (P10520 whole entry): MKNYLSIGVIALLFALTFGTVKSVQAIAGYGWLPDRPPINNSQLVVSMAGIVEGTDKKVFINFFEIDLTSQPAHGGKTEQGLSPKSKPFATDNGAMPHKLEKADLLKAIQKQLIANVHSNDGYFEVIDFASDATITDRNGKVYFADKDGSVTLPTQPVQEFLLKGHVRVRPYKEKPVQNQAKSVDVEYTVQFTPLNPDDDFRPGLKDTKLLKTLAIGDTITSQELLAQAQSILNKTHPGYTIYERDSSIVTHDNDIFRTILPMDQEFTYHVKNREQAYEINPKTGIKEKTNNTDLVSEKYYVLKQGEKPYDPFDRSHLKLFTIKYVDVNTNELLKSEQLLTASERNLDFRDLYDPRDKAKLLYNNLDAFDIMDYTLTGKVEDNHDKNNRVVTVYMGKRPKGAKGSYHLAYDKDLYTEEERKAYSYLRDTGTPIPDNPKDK

Streptococcus = assay: Group A Streptococcus viability loss, dose response, counter-screen for streptokinase expression inhibitor project, luminescence, BacTiterGlo (AID 1915); assay type: functional, organism-based;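 note: potency for reduction of bacterial viability or growth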
Vero = assay: cells; assay type: functional; conditions: Chlorocebus sabaeus
[2] = target: T2, Histone-lysine N-methyltransferase NSD2 (Homo sapiens, UniProt O96028); assay type: biochemical
T2 sequence (O96028 whole entry): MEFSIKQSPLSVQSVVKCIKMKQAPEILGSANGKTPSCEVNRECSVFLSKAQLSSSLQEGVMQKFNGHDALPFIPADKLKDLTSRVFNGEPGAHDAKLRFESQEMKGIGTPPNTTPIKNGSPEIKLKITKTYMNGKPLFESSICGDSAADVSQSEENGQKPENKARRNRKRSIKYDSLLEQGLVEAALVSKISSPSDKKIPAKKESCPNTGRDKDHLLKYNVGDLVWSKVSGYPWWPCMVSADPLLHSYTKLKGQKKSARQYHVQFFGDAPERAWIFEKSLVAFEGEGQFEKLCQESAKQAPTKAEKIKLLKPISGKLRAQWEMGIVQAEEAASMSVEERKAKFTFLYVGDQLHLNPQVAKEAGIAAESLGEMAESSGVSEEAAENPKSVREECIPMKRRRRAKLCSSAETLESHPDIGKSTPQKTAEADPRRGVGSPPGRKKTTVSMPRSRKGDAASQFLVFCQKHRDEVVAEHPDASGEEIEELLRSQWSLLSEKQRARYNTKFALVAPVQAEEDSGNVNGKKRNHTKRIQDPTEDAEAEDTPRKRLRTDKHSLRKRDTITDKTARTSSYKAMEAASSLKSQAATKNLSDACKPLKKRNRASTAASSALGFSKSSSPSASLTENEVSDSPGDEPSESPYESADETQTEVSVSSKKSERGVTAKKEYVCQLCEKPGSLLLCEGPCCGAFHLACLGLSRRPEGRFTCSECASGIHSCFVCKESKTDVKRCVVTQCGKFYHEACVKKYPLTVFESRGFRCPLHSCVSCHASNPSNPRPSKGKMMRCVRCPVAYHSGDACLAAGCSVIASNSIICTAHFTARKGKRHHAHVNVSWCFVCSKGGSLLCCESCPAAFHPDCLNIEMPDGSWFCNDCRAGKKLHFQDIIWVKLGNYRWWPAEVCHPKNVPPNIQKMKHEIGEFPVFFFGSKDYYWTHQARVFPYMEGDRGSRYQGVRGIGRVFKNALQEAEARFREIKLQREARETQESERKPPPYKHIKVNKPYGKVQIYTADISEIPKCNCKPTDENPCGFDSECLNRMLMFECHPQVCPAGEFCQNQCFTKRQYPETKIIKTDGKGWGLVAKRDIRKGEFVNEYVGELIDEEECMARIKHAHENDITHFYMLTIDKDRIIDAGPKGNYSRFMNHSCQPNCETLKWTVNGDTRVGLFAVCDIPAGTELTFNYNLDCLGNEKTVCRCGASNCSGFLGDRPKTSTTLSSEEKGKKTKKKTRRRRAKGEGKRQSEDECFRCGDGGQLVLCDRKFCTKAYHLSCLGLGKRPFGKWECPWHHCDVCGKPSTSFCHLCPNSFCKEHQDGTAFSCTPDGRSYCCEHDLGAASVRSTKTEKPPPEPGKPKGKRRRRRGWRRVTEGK

Large T antigen = Large T antigen (Simian virus 40, UniProt P03070); assay type: functional, Betapolyomavirus macacae;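 note: Confirmatory-stage PubChem screen for compounds that inhibit SV40 T antigen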
Chain of Large T antigen (P03070 whole entry): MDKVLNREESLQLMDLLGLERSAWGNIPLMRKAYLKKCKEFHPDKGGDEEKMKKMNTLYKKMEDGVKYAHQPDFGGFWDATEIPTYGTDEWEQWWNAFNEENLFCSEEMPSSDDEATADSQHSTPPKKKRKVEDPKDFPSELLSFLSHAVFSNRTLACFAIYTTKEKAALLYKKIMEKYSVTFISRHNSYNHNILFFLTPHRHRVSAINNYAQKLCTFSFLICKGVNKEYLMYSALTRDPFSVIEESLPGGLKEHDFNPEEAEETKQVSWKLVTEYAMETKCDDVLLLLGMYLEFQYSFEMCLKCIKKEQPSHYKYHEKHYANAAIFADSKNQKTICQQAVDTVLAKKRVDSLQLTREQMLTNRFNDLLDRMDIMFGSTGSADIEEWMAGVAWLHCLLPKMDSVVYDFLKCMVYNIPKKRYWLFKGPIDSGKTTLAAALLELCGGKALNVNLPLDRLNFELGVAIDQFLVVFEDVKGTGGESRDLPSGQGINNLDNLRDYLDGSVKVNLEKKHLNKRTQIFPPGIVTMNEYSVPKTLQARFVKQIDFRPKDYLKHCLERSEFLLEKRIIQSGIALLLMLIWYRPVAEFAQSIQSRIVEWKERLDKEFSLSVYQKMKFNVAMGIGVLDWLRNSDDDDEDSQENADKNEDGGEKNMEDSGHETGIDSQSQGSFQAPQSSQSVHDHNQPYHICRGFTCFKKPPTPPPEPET

[3] = target: Heat shock protein HSP 90-alpha (Homo sapiens, UniProt P07900); assay type: functional, organism-based
[4] = target: T3, Carboxy-terminal domain RNA polymerase II polypeptide A small phosphatase 1 (Homo sapiens, UniProt Q9GZU7); assay: inhibitors of CTDSP1, concentration-response testing, biochemical assay, absorbance-based, actives from ultra-high-throughput screening (AID 540297); assay type: functional
T3 sequence (Q9GZU7 whole entry): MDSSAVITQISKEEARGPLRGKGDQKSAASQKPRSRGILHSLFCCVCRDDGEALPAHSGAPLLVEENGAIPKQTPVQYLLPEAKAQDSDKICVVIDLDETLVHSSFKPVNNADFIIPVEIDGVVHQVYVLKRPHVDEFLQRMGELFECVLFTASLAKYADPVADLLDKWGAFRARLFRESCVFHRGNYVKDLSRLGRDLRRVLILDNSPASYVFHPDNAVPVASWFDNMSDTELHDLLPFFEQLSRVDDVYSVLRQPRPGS

Caspase-6 = target: T4, Caspase-6 (Homo sapiens, UniProt P55212); assay: human caspase-6 inhibitors, dose response, biochemical, VEID-R110 fluorescence, cherry-pick (AID 720632)
T4 sequence (P55212 whole entry): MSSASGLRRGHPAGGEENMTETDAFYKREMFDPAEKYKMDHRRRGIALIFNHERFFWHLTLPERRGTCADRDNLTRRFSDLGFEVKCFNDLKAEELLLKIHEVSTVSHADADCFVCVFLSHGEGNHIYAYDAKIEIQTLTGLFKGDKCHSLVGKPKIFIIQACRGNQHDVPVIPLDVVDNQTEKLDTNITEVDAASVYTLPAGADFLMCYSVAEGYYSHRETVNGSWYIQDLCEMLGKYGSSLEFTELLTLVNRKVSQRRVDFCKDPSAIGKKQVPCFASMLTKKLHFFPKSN

[5] = target: T5, Rac GTPase-activating protein 1 (Homo sapiens, UniProt Q9H0H5); assay: MgcRacGAP GTPase-activating activity inhibitors, confirmation, biochemical, ADP Hunter fluorescence, primary and confirmatory (AID 624330); assay type: functional
T5 sequence (Q9H0H5 whole entry): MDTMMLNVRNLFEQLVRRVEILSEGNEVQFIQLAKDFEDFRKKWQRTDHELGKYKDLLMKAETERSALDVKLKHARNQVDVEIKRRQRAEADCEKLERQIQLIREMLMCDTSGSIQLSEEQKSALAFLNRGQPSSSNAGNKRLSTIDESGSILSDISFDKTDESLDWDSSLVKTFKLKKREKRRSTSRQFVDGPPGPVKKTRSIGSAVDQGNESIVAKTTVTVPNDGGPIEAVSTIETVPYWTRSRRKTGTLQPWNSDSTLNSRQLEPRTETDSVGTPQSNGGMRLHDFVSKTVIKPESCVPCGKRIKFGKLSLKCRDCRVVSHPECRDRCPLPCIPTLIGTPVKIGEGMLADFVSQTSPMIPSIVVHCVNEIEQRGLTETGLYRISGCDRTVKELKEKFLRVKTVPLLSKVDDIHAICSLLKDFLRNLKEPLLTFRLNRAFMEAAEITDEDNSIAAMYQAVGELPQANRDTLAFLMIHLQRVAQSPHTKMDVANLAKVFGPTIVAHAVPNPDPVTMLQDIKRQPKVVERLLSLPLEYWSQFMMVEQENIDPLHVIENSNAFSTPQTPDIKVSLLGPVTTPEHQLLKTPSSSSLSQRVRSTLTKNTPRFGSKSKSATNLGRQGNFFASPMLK

[6] = Luminescence Cell-Based Dose Retest to Confirm Inhibitors of Cancer Stem Cells. [Related pubchem assays (depositor defined):AID2717, AID2721]; assay type: functional; conditions: Homo sapiens
[7] = Shn3 3'UTR reporter inhibitors, dose response, cell-based, Clone20 osteoblasts, firefly luciferase, cherry-picked (AID 624132); assay type: functional;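 note: firefly luciferase luminescence from reporter carrying the Shn3 3'UTR in osteoblasts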
[8] = HepG2 cell cytotoxicity, dose response, cytotoxicity control for Shn3 inhibitor project, CellTiter-Glo, cherry-picked (AID 624134); assay type: functional, cell-based
[9] = control 3'UTR Renilla luciferase suppression, dose response, counter-screen for Shn3 inhibitor project, cell-based, Clone20-Shn3RL, cherry-picked (AID 624133); assay type: functional
[10] = target: T6, Short transient receptor potential channel 4 (Mus musculus, UniProt Q9QUQ5); assay: mouse TRPC4 channel activators, dose response, cell-based, HEK293 TRPC4/mu-opioid, Fluo-4 calcium (AID 434937); assay type: functional
T6 sequence (Q9QUQ5 whole entry): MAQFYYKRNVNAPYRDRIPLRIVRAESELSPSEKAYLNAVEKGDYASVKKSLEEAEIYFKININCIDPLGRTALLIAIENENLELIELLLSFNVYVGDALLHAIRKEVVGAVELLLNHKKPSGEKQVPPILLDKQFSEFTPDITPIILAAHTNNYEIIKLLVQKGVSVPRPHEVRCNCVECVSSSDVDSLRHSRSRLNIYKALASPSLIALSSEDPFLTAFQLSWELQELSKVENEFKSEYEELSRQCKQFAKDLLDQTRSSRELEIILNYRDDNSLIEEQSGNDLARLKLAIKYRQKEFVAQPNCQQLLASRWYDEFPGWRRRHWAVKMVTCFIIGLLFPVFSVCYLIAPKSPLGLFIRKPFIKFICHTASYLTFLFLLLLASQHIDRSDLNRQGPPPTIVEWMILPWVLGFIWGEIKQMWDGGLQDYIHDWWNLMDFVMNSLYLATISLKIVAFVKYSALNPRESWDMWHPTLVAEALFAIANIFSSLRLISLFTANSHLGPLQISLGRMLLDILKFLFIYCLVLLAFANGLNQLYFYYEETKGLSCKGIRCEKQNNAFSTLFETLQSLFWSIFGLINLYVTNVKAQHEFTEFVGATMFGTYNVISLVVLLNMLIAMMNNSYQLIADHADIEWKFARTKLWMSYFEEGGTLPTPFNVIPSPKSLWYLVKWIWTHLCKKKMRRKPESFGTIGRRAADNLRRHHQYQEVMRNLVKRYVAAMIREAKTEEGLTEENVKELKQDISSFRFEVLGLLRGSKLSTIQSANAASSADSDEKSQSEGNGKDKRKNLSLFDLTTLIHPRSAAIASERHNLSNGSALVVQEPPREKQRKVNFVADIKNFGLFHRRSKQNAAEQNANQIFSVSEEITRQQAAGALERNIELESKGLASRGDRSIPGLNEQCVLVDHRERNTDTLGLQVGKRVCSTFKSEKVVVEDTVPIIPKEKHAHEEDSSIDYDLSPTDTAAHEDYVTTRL

Nonstructural protein 1 = Nonstructural protein 1 (Influenza A virus, UniProt Q194T2); assay type: functional, Influenza A virus (A/California/07/2009(H1N1))
Chain of Nonstructural protein 1 (Q194T2 whole entry): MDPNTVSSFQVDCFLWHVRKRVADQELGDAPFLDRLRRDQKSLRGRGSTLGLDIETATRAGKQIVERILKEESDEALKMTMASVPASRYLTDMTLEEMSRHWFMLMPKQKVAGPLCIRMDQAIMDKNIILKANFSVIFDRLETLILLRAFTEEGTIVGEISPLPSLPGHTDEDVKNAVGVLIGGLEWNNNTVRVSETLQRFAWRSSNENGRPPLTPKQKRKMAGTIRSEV

[11] = target: Luciferin 4-monooxygenase (Photinus pyralis, UniProt P08659); assay: firefly luciferase enzyme inhibitors, dose response, biochemical, luminescence (AID 1891)
Chain of Luciferin 4-monooxygenase (P08659 whole entry): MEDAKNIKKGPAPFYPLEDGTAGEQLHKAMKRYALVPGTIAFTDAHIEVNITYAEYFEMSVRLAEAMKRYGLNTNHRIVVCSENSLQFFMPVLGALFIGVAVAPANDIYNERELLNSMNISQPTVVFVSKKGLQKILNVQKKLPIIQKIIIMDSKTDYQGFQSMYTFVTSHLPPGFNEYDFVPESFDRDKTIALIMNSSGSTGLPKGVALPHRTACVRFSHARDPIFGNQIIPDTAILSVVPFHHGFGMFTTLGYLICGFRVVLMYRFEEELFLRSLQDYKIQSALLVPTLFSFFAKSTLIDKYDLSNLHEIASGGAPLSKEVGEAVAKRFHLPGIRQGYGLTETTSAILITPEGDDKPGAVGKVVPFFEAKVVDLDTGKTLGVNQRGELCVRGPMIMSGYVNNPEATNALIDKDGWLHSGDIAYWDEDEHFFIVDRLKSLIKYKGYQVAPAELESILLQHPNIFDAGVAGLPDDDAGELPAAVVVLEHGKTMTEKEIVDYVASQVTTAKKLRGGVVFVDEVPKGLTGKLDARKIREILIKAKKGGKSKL

[12] = Luminescence Cell-Based Dose Confirmation HTS to Identify Inhibitors of Platelet Dense Granule Release. [Related pubchem assays: 1663 (Primary HTS), 1678 (Summary of Project)]; assay type: functional

## Cc1oc(-c2ccccc2Cl)nc1Cn1cccc1C1=NC(c2ccccc2)CO1 (stereo not given)
[1]
  EC50: > 150 µM (not active)
Streptokinase A
  EC50: > 50 µM (not active)
Streptococcus
  EC50: > 150 µM (not active)
Vero
  CC50: > 25 µM (active)

## Cc1c(CN(C)C)c2c(n1Cc1ccccc1)C(=O)c1ccccc1-2
[2]
  AC50: 8.45 µM (active)

## Cc1cc(-c2nnc(S)n2/N=C/c2c[nH]c3ccccc23)[nH]n1
Large T antigen
  IC50: 64 µM (active)

## CC(C)c1c(O)ccc2c1CC[C@H]1C(C)(C)CCC[C@]21C [TOTAROL]
[3]
  AC50: 3.79 µM (active)

## COc1ccc(-c2nnc(NC(=O)c3cccs3)s2)c(OC)c1
[4]
  IC50: 3.57 µM (active)

## O=c1c2ccccc2[nH]c2ccc(O)cc12
Large T antigen
  IC50: 9.16 µM (active)
Caspase-6
  AC50: 17.7 µM (active)

## Cc1cccc(NC(=O)CSc2nc3nc(O)cc(O)c3s2)c1
[4]
  IC50: 15.9 µM (active)

## Cc1cc(O)ccc1N/C=C1\CCCC1=O
Large T antigen
  IC50: 29.8 µM (active)
[5]
  IC50: 22.7 µM (active)

## Cc1ccc(NC(=O)CC2=NC(=O)C(CC(=O)Nc3ccccc3F)S2)cc1 (stereo not given)
[2]
  AC50: 19.1 µM (active)

## CC(C)N(CCC(=O)c1ccc2ccccc2c1)Cc1ccccc1
[6]
  AC50: 5.58 µM (active)
[3]
  AC50: 9.38 µM (active)
[7]
  AC50: 4.22 µM (active)
[8]
  AC50: > 70 µM (inactive)
[9]
  AC50: 17.3 µM (active)

## Cc1ccc(OCC(=O)NNC(=S)NC(=O)C(C)(C)C)c(Br)c1
[10]
  EC50: 4.73 µM (active)
[3]
  AC50: 4.75 µM (active)

## CSc1nnc(C)c(/C=C/Nc2ccc(F)cc2F)n1
[4]
  IC50: 13.3 µM (active)

## Cc1cc(/C=C2\SC(=S)N=C2O)c(C)n1-c1cccc(O)c1
Streptokinase A
  EC50: > 150 µM (not active)
[3]
  AC50: 8.8 µM (active)

## C[Se]C[C@@H](N)C(=O)O
[4]
  IC50: 15 µM (active)

## COC(=O)C1CCN(C2=C(NS(=O)(=O)c3ccc(Cl)cc3)C(=O)c3ccccc3C2=O)CC1
Nonstructural protein 1
  IC50: 27.4 µM (active)
[2]
  AC50: 13.1 µM (active)

## N/C(=N\N=C\c1ccc(O)c(O)c1)c1nonc1N
Large T antigen
  IC50: 23.4 µM (active)
[11]
  EC50: 1.67 µM (active)
[12]
  EC50: 1.74 µM (active)
